Values quoted from earlier work, collected in US20060128641A1, “Levamisole, avermectins or similar in pyrrolidone solvent” (priority 2002, published 2006).

Key:
Ostertagia = settings: background table, cattle parasites
[1] = previously found
[2] = background
Cooperia = settings: background table, cattle parasites

## c1ccc([C@H]2CN3CCSC3=N2)cc1 [Levamisole]
Ostertagia
  Ostertagia Efficacy: Poor
[1]
  pH required for stability: less than 4
[2]
  solubility in water: water soluble
Cooperia
  Cooperia Efficacy: Good
